Test systems include OVCAR-4 ovarian; SK-MEL-5 melanoma; MDA-MB-231 breast; CCRF-CEM leukemia; UACC-257 melanoma; DU-145 prostate; SN12C renal; HT29 colon; MCF7 breast; EKVX NSCLC; A498 renal; HL-60(TB) leukemia; COLO 205 colon; SNB-75 CNS; M14 melanoma; ACHN renal; RPMI-8226 leukemia; LOX IMVI melanoma; SK-MEL-2 melanoma; NCI-H522 lung.
Holding throughout (experiment): NCI anticancer screen, dose series, 48 h

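Cells were grown in 96-well plates and exposed to each compound for 48 hours at five concentrations; endpoints were interpolated linearly between bracketing concentrations, or set to the highest concentration if not reached. TGI: total growth inhibition.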

Consider `COc1ccc(C2Oc3c(cccc3-c3c(-c4ccc(O)cc4)oc4cc(O)cc(O)c4c3=O)C(=O)C2O)cc1O` (stereo unspecified), for which the TGI in the test on OVCAR-4 ovarian, with SK-MEL-5 melanoma, with MDA-MB-231 breast, in the test on CCRF-CEM leukemia, in the test on UACC-257 melanoma and in the test with DU-145 prostate was over 100 µM each time. Also, the TGI in the test on SN12C renal, in the test with HT29 colon, in the test on MCF7 breast, in the test on EKVX NSCLC, in the test on A498 renal and with HL-60(TB) leukemia was over 100 µM throughout. The TGI in the test with COLO 205 colon, in the test with SNB-75 CNS, in the test on M14 melanoma, in the test on ACHN renal and in the test with RPMI-8226 leukemia was over 100 µM in each case.

Consider `Cc1ccc2c(c1)C=CC1(O2)N(c2ccccc2)C(=S)OC1(C)C` (stereo unspecified), for which the TGI in the test on OVCAR-4 ovarian, in the test with SK-MEL-5 melanoma, in the test on MDA-MB-231 breast, in the test with LOX IMVI melanoma, in the test with CCRF-CEM leukemia and in the test on UACC-257 melanoma was over 100 µM in each case. Also, the TGI with DU-145 prostate, in the test with SN12C renal, with SK-MEL-2 melanoma, in the test with HT29 colon, in the test with MCF7 breast and with EKVX NSCLC was over 100 µM throughout. The TGI in the test with A498 renal was over 100 µM; with HL-60(TB) leukemia, 31.2 µM; with COLO 205 colon it was over 100 µM; in the test on SNB-75 CNS, over 100 µM; in the test with M14 melanoma, over 100 µM; in the test on ACHN renal, over 100 µM. In the test with RPMI-8226 leukemia, this molecule had a TGI of over 100 µM.

Regarding `CC(C)(C)[Si](C)(C)OCCc1ccccc1C1CC2(S(=O)(=O)c3ccccc3)ON1CC2S(=O)(=O)c1ccccc1` (stereo unspecified), the TGI in the test with OVCAR-4 ovarian, with SK-MEL-5 melanoma, in the test on MDA-MB-231 breast, with CCRF-CEM leukemia, with UACC-257 melanoma and in the test on DU-145 prostate was over 100 µM each time. Also, the TGI in the test with SN12C renal, with SK-MEL-2 melanoma, with HT29 colon, in the test with MCF7 breast, in the test with EKVX NSCLC and with A498 renal was over 100 µM each time. Also, the TGI with COLO 205 colon, in the test on SNB-75 CNS, in the test on M14 melanoma and in the test on ACHN renal was over 100 µM throughout.

With `Cc1cccc(Nc2nc3ccccc3nc2NS(=O)(=O)c2ccccc2)c1`, the TGI in the test with OVCAR-4 ovarian is 19.7 µM; in the test with SK-MEL-5 melanoma, over 100 µM; in the test with MDA-MB-231 breast it was over 100 µM; in the test on LOX IMVI melanoma it was over 100 µM; in the test with CCRF-CEM leukemia, 86.5 µM; with UACC-257 melanoma, over 100 µM. The TGI in the test on DU-145 prostate is over 100 µM; with SN12C renal, over 100 µM; in the test on SK-MEL-2 melanoma it was 68.6 µM; in the test with HT29 colon, over 100 µM; with NCI-H522 lung it was 73.9 µM; in the test on MCF7 breast it was over 100 µM. Besides, the TGI in the test with EKVX NSCLC is over 100 µM; in the test with HL-60(TB) leukemia it was 37.8 µM; in the test on COLO 205 colon it was 30.7 µM; in the test with SNB-75 CNS it was 63.8 µM; in the test on M14 melanoma, over 100 µM; with ACHN renal it was over 100 µM. The molecule also had a TGI in the test on RPMI-8226 leukemia of over 100 µM.

In the case of `CC1=NN(C(=O)CC(=O)NC(=O)/C=C\c2ccccc2)C(=O)C1N=Nc1ccc([N+](=O)[O-])cc1` (stereo unspecified), the TGI with MDA-MB-231 breast, in the test on LOX IMVI melanoma, in the test with CCRF-CEM leukemia, in the test with DU-145 prostate, with SN12C renal and in the test on HT29 colon was over 100 µM in each case. Further, the TGI in the test on MCF7 breast, in the test with EKVX NSCLC, in the test with A498 renal, in the test on HL-60(TB) leukemia, in the test with COLO 205 colon and with SNB-75 CNS was over 100 µM in each case. The TGI with M14 melanoma, with ACHN renal and with RPMI-8226 leukemia was over 100 µM each time.

As to `COC(=O)CSc1nc2[nH]c(SC)c(C(N)=O)c2c(=O)n1-c1ccccc1`, the TGI with OVCAR-4 ovarian, with SK-MEL-5 melanoma, with MDA-MB-231 breast, with LOX IMVI melanoma, in the test with CCRF-CEM leukemia and in the test with UACC-257 melanoma was over 10 µM in each case. Besides, the TGI in the test with DU-145 prostate, with SN12C renal, in the test on HT29 colon, in the test on MCF7 breast, with EKVX NSCLC and with HL-60(TB) leukemia was over 10 µM each time. Moreover, the TGI with COLO 205 colon, with SNB-75 CNS, in the test with M14 melanoma and with RPMI-8226 leukemia was over 10 µM in each case.

In the case of `NNC(=O)c1cc([N+](=O)[O-])ccc1NC(=O)C12CC3CC(CC(C3)C1)C2`, the TGI with OVCAR-4 ovarian is 23 µM; with SK-MEL-5 melanoma, over 100 µM; in the test on MDA-MB-231 breast, 56.5 µM; with LOX IMVI melanoma it was 20.1 µM; in the test with CCRF-CEM leukemia, 24.9 µM; in the test on UACC-257 melanoma, 59.3 µM. Also, the TGI with DU-145 prostate is over 100 µM; in the test with SN12C renal, over 100 µM; with HT29 colon it was over 100 µM; with NCI-H522 lung it was 15.1 µM; in the test on MCF7 breast, over 100 µM; in the test on EKVX NSCLC, over 100 µM. Moreover, the TGI in the test on HL-60(TB) leukemia was 22.1 µM; in the test on COLO 205 colon, 64.2 µM; in the test with M14 melanoma it was over 100 µM; with ACHN renal, 36.1 µM; in the test on RPMI-8226 leukemia, 35.8 µM.

As to `COc1cc2c(c(OC)c1OC)C(=O)[C@@H](O)[C@H]2NC(N)=O`, the TGI in the test with SK-MEL-5 melanoma, in the test on MDA-MB-231 breast, in the test on LOX IMVI melanoma, in the test with CCRF-CEM leukemia, in the test on UACC-257 melanoma and in the test with DU-145 prostate was over 100 µM each time. In addition, the TGI with SN12C renal, in the test on HT29 colon, with NCI-H522 lung, with MCF7 breast, in the test on EKVX NSCLC and with HL-60(TB) leukemia was over 100 µM in each case. For the same molecule, the TGI in the test with COLO 205 colon, in the test on SNB-75 CNS, in the test with M14 melanoma, in the test on ACHN renal and with RPMI-8226 leukemia was over 100 µM each time.

Values taken from PubChem BioAssay (NCI).
